Data on 28 compounds can be found in US10117864B2, “Substituted N-bicyclo-2-aryl-quinolin-4-carboxamides and use thereof” (BAYER PHARMA AKTIENGESELLSCHAFT, priority 2015, dated 2018).

The test deals with human FP receptor (Homo sapiens (Human), UniProt P43088). Briefly: In vitro test of inhibition of human FP receptor activity (PGF2α-induced calcium flux in FP-expressing CHEM1 cells). To be noted: PGF2α-induced (3 nM) calcium flux, some as mean values from multiple independent determinations. The format is cell-based. The text has this:
• CRTH2 chemoattractant receptor-homologous molecule expressed on T helper type 2 cells • DMEM Dulbecco's modified Eagle's medium • DMSO dimethyl sulfoxide • DP PGD2 receptor • EC50 half-maximum effective concentration • Em emission • EP PGE2 receptor • Ex excitation • from Company (source) • FCS fetal calf serum • FP PGF2α receptor • HEPES 2-[4-(2-hydroxyethyl)piperazin-1-yl]ethanesulfonic acid • IC50 half-maximum inhibitory concentration • IP PGI2 receptor • MES 2-(N-morpholino)ethanesulfonic acid • Pen/Strep penicillin/streptomycin • PGD2 prostaglandin D2 • PGE2 prostaglandin E2 • PGF2α prostaglandin F2α • PGI2 prostaglandin I2 • TC tissue culture • TP thromboxane A2 receptor • Tris tris(hydroxymethyl)aminomethane • v/v volume to volume ratio (of a solution) • w/w weight to weight ratio (of a solution) B-1. In Vitro Test of Inhibition of Human FP Receptor Activity
For the characterization of test substances in respect of FP antagonism, PGF2α-induced calcium flux in FP-expressing CHEM1 cells (Millipore, HTS093C) was used.
Prior to the measurement, the medium is replaced by 30 μl of Fluo-8 AM loading buffer [calcium-free Tyrode (130 mM NaCl, 5 mM KCl, 20 mM HEPES, 1 mM MgCl2, 4.8 mM NaHCO3, pH 7.4), 2 mM CaCl2, 1× SmartBlock (from CANDOR Bioscience GmbH), 4.5 mM Probenecid, 5 μM Fluo-8 AM, 0.016% Pluronic®, 0.04% Brilliant black] and incubated at 37° C./5% CO2 for 30 minutes. […] 10 μl of the prediluted substance solution are added to the Fluo-8-laden cells and incubated at 37° C./5% CO2 for 10 minutes. The FP receptor is activated by adding 20 μl of 3 nM (final concentration) PGF2α in calcium-free Tyrode/2 mM CaCl2/0.04% Brilliant black, and the calcium flux is determined by measuring the fluorescence at ex. 470 nm/[…].
Table 1 below lists the IC50 values from this assay for individual working examples of the invention (some as mean values from multiple independent individual determinations): […]
In general terms: Calcium flux is commonly read through the fluorescence of an indicator in the cells.

Sequence of human FP receptor (P43088 whole entry): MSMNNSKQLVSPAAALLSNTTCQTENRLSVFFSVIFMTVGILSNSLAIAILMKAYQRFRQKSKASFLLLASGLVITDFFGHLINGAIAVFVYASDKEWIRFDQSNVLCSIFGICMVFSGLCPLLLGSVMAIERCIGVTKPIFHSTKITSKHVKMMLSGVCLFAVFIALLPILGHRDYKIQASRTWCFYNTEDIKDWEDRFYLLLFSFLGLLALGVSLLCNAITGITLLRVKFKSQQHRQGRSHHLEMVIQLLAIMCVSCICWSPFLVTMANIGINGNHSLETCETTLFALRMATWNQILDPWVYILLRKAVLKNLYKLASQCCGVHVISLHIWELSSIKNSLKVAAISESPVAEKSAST

On to `Cc1c(-c2ccccc2)nc2ccc(Br)cc2c1C(=O)NC12CCC(C(=O)O)(CC1)C(=O)C2` [Example 57, 4-{[(6-Bromo-3-methyl-2-phenylquinolin-4-yl)carbonyl]amino}-2-oxobicyclo[2.2.2]octane-1-carboxylic acid], for which the IC50 (in general, the midpoint of a concentration-inhibition curve) turned out to be 0.637 µM.

For the compound `Cc1c(-c2ccc(F)cc2)nc2ccc(Br)cc2c1C(=O)NC12CCC(C(=O)O)(CC1)CC2` [Example 8, 4-({[6-Bromo-2-(4-fluorophenyl)-3-methylquinolin-4-yl]carbonyl}amino)bicyclo[2.2.2]octane-1-carboxylic acid], the 50% inhibitory concentration (IC50) is 0.18 µM.

On to `Cc1c(-c2ccccc2)nc2ccc(I)cc2c1C(=O)NC12CCC(C(=O)O)(CC1)CC2` [Example 14, 4-{[(6-Iodo-3-methyl-2-phenylquinolin-4-yl)carbonyl]amino}bicyclo[2.2.2]octane-1-carboxylic acid], for which the IC50 worked out at 0.033 µM.

Take `Cc1c(-c2cccc(Cl)c2)nc2ccc(Br)cc2c1C(=O)NC12CCC(C(=O)O)(CC1)CC2` [Example 11, 4-({[6-Bromo-2-(3-chlorophenyl)-3-methylquinolin-4-yl]carbonyl}amino)bicyclo[2.2.2]octane-1-carboxylic acid]: the IC50 worked out at 0.129 µM.

As for `C#Cc1ccc2nc(-c3ccccc3)c(C)c(C(=O)NC34CCC(C(=O)O)(CC3)CC4)c2c1` [Example 56, 4-{[(6-Ethynyl-3-methyl-2-phenylquinolin-4-yl)carbonyl]amino}bicyclo[2.2.2]octane-1-carboxylic acid], the IC50 stood at 0.148 µM.

As to `Cc1c(-c2ccccc2)nc2ccc(I)cc2c1C(=O)NC12CCC(C(=O)O)(CC1)OC2` [Example 64, 4-{[(6-Iodo-3-methyl-2-phenylquinolin-4-yl)carbonyl]amino}-2-oxabicyclo [2.2.2]octane-1-carboxylic acid], the concentration for half-maximal inhibition (IC50) was 0.762 µM.

As for `COc1cccc(-c2nc3ccc(Br)cc3c(C(=O)NC34CCC(C(=O)O)(CC3)CC4)c2C)c1` [Example 26, 4-({[6-Bromo-2-(3-methoxyphenyl)-3-methylquinolin-4-yl]carbonyl}amino)bicyclo[2.2.2]octane-1-carboxylic acid], the 50% inhibitory concentration (IC50) was 0.114 µM.

As to `Cc1c(-c2ccccc2)nc2c(Cl)cc(Cl)cc2c1C(=O)NC12CCC(C(=O)O)(CC1)CC2` [Example 22, 4-{[(6,8-Dichloro-3-methyl-2-phenylquinolin-4-yl)carbonyl]amino}bicyclo[2.2.2]octane-1-carboxylic acid], the IC50 was 0.677 µM.

Regarding `Cc1ccc(-c2nc3ccc(Br)cc3c(C(=O)NC34CCC(C(=O)O)(CC3)CC4)c2C)s1` [Example 53, 4-({[6-Bromo-3-methyl-2-(5-methyl-2-thienyl)quinolin-4-yl]carbonyl}amino)bicyclo[2.2.2]octane-1-carboxylic acid], the IC50 worked out at 0.235 µM.

With `Cc1c(-c2ccccc2)nc2ccc(C(F)(F)F)cc2c1C(=O)NC12CCC(C(=O)O)(CC1)CC2` [Example 34, 4-({[3-Methyl-2-phenyl-6-(trifluoromethyl)quinolin-4-yl]carbonyl}amino)bicyclo[2.2.2]octane-1-carboxylic acid], the concentration for half-maximal inhibition (IC50) is 0.505 µM.

Consider `Cc1c(-c2ccccc2)nc2ccc(Br)cc2c1C(=O)N[C@@H]1[C@@H]2CC[C@H]1C[C@H](C(=O)O)C2` [Example 65, (3-exo,8-anti)-8-{[(6-Bromo-3-methyl-2-phenylquinolin-4-yl)carbonyl]amino}bicyclo[3.2.1]octane-3-carboxylic acid], for which the IC50 is 0.824 µM.

On to `Cc1c(-c2ccccc2)nc2ccc(I)cc2c1C(=O)NC12C3C4C1C1C2C3C41C(=O)O` (stereo not shown) [Example 44, 4-{[(6-Iodo-3-methyl-2-phenylquinolin-4-yl)carbonyl]amino}cubane-1-carboxylic acid], for which the IC50 amounted to 0.073 µM.

`CCc1c(-c2ccccc2)nc2ccc(Br)cc2c1C(=O)NC12CCC(C(=O)O)(CC1)CC2` [Example 28, 4-{[(6-Bromo-3-ethyl-2-phenylquinolin-4-yl)carbonyl]amino}bicyclo[2.2.2]octane-1-carboxylic acid]: the IC50 was determined as 0.22 µM.

For `C=Cc1c(-c2ccccc2)nc2ccc(Br)cc2c1C(=O)NC12CCC(C(=O)O)(CC1)CC2` [Example 67, 4-{[(6-Bromo-2-phenyl-3-vinylquinolin-4-yl)carbonyl]amino}bicyclo[2.2.2]octane-1-carboxylic acid], the IC50 turned out to be 0.44 µM.

As to `Cc1ccccc1-c1nc2ccc(Br)cc2c(C(=O)NC23CCC(C(=O)O)(CC2)CC3)c1C` [Example 24, 4-({[6-Bromo-3-methyl-2-(2-methylphenyl)quinolin-4-yl]carbonyl}amino)bicyclo[2.2.2]octane-1-carboxylic acid], the IC50 came to 0.129 µM.

As for `O=C(NC12CCC(C(=O)O)(CC1)CC2)c1c(C2CC2)c(-c2ccccc2)nc2ccc(Br)cc12` [Example 29, 4-{[(6-Bromo-3-cyclopropyl-2-phenylquinolin-4-yl)carbonyl]amino}bicyclo[2.2.2]octane-1-carboxylic acid], the IC50 amounted to 0.051 µM.

With `O=C(NC12CCCC(C(=O)O)(CC1)CC2)c1c(Cl)c(-c2ccccc2)nc2ccc(I)cc12` [Example 41, 5-{[(3-Chloro-6-iodo-2-phenylquinolin-4-yl)carbonyl]amino}bicyclo[3.2.2]nonane-1-carboxylic acid], the IC50 came out at 0.048 µM.

In the case of `Cc1c(-c2ccccc2)nc2ccc(Br)cc2c1C(=O)NC12CCC(C(N)=O)(CC1)CC2` [Example 36, 6-Bromo-N-(4-carbamoylbicyclo[2.2.2]oct-1-yl)-3-methyl-2-phenylquinoline-4-carboxamide], the IC50 was 0.553 µM.

With `Cc1c(-c2ccccc2)nc2ccc(C3CCC3)cc2c1C(=O)NC12CCC(C(=O)O)(CC1)CC2` [Example 16, 4-{[(6-Cyclobutyl-3-methyl-2-phenylquinolin-4-yl)carbonyl]amino}bicyclo [2.2.2]octane-1-carboxylic acid], the half-inhibitory concentration (IC50) amounted to 0.589 µM.

On to `Cc1c(-c2ccccc2)nc2ccc(SC(F)(F)F)cc2c1C(=O)NC12CCC(C(=O)O)(CC1)CC2` [Example 20, 4-[({3-Methyl-2-phenyl-6-[(trifluoromethyl)sulfanyl]quinolin-4-yl}carbonyl)amino]bicyclo[2.2.2]octane-1-carboxylic acid], for which the IC50 is 0.521 µM.

With `Cc1c(-c2ccc(Br)s2)nc2ccc(Br)cc2c1C(=O)NC12CCC(C(=O)O)(CC1)CC2` [Example 55, 4-({[6-Bromo-2-(5-bromo-2-thienyl)-3-methylquinolin-4-yl]carbonyl}amino)bicyclo[2.2.2]octane-1-carboxylic acid], the IC50 came to 0.383 µM.

Turning to `Cc1c(-c2c(F)cccc2F)nc2ccc(Br)cc2c1C(=O)NC12CCC(C(=O)O)(CC1)CC2` [Example 25, 4-({[6-Bromo-2-(2,6-difluorophenyl)-3-methylquinolin-4-yl]carbonyl}amino)bicyclo[2.2.2]octane-1-carboxylic acid], the IC50 stood at 0.494 µM.

On to `COc1c(-c2ccccc2)nc2ccc(Br)cc2c1C(=O)NC12CCC(C(=O)O)(CC1)CC2` [Example 13, 4-{[(6-Bromo-3-methoxy-2-phenylquinolin-4-yl)carbonyl]amino}bicyclo [2.2.2]octane-1-carboxylic acid], for which the IC50 stood at 0.153 µM.

Take `O=C(NC12CCC(C(=O)O)(CC1)CC2)c1c(O)c(-c2ccccc2)nc2ccc(Br)cc12` [Example 35, 4-{[(6-Bromo-3-hydroxy-2-phenylquinolin-4-yl)carbonyl]amino}bicyclo[2.2.2]octane-1-carboxylic acid]: the IC50 came out at 0.43 µM.

As to `Cc1c(-c2ccccc2)nc2ccc([Si](C)(C)C)cc2c1C(=O)NC12CCC(C(=O)O)(CC1)CC2` [Example 17, 4-({[3-Methyl-2-phenyl-6-(trimethylsilyl)quinolin-4-yl]carbonyl}amino)bicyclo[2.2.2]octane-1-carboxylic acid], the IC50 worked out at 0.214 µM.

As for `O=C(NC12CCC(C(=O)O)(CC1)CC2)c1c(Cl)c(-c2ccccc2)nc2ccc(Br)cc12` [Example 30, 4-{[(6-Bromo-3-chloro-2-phenylquinolin-4-yl)carbonyl]amino}bicyclo[2.2.2]octane-1-carboxylic acid], the IC50 was found to be 0.052 µM.

On to `Cc1c(-c2ccccc2)nc2c(C)cc(Br)cc2c1C(=O)NC12CCC(C(=O)O)(CC1)CC2` [Example 21, 4-{[(6-Bromo-3,8-dimethyl-2-phenylquinolin-4-yl)carbonyl]amino}bicyclo[2.2.2]octane-1-carboxylic acid], for which the IC50 was determined as 0.214 µM.

As to `N#Cc1c(-c2ccccc2)nc2ccc(Br)cc2c1C(=O)NC12CCC(C(=O)O)(CC1)CC2` [Example 66, 4-{[(6-Bromo-3-cyano-2-phenylquinolin-4-yl)carbonyl]amino}bicyclo[2.2.2]octane-1-carboxylic acid], the IC50 is 0.762 µM.
